These results are taken from ChEMBL document CHEMBL1201862, “PubChem BioAssay data set” (2004).

The source made the active and inactive calls.

Test [1] has as its target T1, Small ubiquitin-related modifier 1 (Homo sapiens, UniProt P63165). Kind of test: inhibitors of SUMO1 peptide binding, dose response, biochemical, fluorescence polarization, uHTS hits (AID 624382). It is filed as functional. Particulars: read-out: IC50_Mean. On the technique in general: Polarisation of emitted light reports the rotation of a fluorescent probe.
In test [2] the target is T2, CAAX prenyl protease 2 (Saccharomyces cerevisiae S288c, UniProt Q03530).
T2 sequence (Q03530 whole entry): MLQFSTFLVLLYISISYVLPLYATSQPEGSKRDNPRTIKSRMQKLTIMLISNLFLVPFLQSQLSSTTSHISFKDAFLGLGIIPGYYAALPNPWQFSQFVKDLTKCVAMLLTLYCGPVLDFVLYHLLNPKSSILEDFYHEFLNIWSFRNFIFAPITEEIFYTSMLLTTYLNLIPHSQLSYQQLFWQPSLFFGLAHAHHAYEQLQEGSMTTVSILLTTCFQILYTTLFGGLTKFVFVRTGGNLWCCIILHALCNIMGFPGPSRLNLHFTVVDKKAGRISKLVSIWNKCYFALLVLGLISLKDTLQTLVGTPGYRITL
It is filed as biochemical.

Test [3] concerns the target Peroxisome proliferator-activated receptor gamma/Nuclear receptor corepressor 2 (Homo sapiens, UniProt P37231+Q9Y618). It is filed as functional.
Test [4] deals with CAAX prenyl protease 2 (Homo sapiens, UniProt Q9Y256). Kind of test: human Rce1 protease inhibitors, dose response, biochemical, yeast membranes, quenched-peptide fluorescence, cherry-pick (AID 588849).
Test [5] deals with Dual specificity tyrosine-phosphorylation-regulated kinase 1A (Rattus norvegicus, UniProt Q63470). Type of test: biochemical, Homo sapiens.
Test [6] has as its target Tyrosyl-DNA phosphodiesterase 2 (Homo sapiens, UniProt O95551). Kind of test: human TDP2 enzyme inhibitors, dose response, biochemical, epi absorbance, IC50 (AID 743297).
The target in test [7] is Photoreceptor-specific nuclear receptor (Homo sapiens, UniProt Q9Y5X4). Type of test: functional.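 Also: potency for compounds that break the NR2E3 corepressor complex and count as activators.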
Photoreceptor-specific nuclear receptor, sequence (Q9Y5X4 whole entry): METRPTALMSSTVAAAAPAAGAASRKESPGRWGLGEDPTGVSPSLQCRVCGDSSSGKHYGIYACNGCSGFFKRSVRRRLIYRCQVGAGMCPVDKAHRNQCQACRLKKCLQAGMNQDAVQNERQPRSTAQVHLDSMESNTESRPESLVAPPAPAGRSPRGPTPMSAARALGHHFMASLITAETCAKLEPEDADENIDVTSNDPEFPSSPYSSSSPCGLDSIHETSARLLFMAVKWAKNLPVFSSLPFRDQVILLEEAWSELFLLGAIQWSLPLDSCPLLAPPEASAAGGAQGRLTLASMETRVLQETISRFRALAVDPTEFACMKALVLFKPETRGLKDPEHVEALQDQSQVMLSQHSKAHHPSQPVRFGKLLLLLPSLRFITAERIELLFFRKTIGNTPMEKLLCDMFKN
For the next test, the target named is Major prion protein (Homo sapiens, UniProt P04156). It is filed as functional, cell-based.
Test [8] concerns the target T1, Small ubiquitin-related modifier 1. As to the kind of experiment: inhibitors of SUMO1 partner interactions, dose response, biochemical, FRET (AID 624383). The settings on record: read-out: IC50_Mean. Type of test: functional.
Test [9] can be described thus: cells.
The nature of test [10]: ADAM10 protease inhibitors, dose response, selectivity assay for ADAM17 exosite inhibitor project, biochemical, FRET peptide substrate, recombinant human ADAM10 (AID 743259).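 Also: ADAM10 enzyme cleaving a FRET peptide substrate.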
Test [11] can be described thus: Luminescence Cell-Based Dose Confirmation HTS to Identify Inhibitors of Platelet Dense Granule Release. [Related pubchem assays: 1663 (Primary HTS), 1678 (Summary of Project)]. Type of test: functional.
The target of test [12] is Luciferin 4-monooxygenase (Photinus pyralis, UniProt P08659). As to the kind of experiment: firefly luciferase enzyme inhibitors, dose response, biochemical, luminescence (AID 1891).
Luciferin 4-monooxygenase, sequence (P08659 whole entry, the tested form may be a part): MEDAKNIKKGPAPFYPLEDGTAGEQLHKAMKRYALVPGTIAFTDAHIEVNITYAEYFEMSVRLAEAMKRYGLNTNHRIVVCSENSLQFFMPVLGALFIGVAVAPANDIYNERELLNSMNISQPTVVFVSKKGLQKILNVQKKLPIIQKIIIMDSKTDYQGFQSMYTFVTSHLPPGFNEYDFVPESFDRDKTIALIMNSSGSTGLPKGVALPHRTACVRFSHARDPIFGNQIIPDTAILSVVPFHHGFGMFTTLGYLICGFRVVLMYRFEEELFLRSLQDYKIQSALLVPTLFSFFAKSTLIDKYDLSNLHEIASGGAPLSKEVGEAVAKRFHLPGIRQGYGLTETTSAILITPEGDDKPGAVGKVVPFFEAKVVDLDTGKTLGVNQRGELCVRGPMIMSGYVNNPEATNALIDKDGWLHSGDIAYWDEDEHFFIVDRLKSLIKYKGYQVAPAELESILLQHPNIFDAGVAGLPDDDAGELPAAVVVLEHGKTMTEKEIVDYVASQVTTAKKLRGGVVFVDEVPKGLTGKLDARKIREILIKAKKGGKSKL
Test [13] concerns the target Disintegrin and metalloproteinase domain-containing protein 17 (Homo sapiens, UniProt P78536). Kind of test: exosite inhibitors of ADAM17, dose response, biochemical (AID 743260).
The target of test [14] is Oxysterols receptor LXR-beta (Homo sapiens, UniProt P55055). Type of test: functional, cell-based.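 Also: agonist activity at LXR measured by a cell-based luminescence readout across a dose range, run as a counterscreen for daf-12 agonists; HEK293 cells with Gal4-LXR fusion and GAL4-driven luciferase reporter; potency for activation of Gal4-LXR reporter so compounds are agonists.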
Oxysterols receptor LXR-beta, sequence (P55055 whole entry, the tested form may be a part): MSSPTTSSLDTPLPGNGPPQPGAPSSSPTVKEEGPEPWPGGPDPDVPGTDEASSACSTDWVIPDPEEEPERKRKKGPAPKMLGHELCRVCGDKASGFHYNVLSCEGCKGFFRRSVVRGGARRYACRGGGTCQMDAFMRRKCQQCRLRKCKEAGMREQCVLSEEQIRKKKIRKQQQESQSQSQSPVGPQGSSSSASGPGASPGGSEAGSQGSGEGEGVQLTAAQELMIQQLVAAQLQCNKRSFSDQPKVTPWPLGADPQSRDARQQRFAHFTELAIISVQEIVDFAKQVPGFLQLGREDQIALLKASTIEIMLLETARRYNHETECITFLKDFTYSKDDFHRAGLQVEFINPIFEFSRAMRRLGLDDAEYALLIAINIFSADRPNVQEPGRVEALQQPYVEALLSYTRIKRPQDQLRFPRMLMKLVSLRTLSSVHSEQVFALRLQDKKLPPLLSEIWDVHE
Test [15] concerns the target Potassium channel subfamily K member 9 (Homo sapiens, UniProt Q9NPC2). As to the kind of experiment: TASK3 (KCNK9) channel inhibitors, thallium flux, SAR follow-up, selectivity assay for TASK1 inhibitor project, cell-based, FluxOR thallium flux, concentration-response (AID 652211).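 Also: potency is for inhibitors of the channel.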 Type of test: functional.
Test [16] has as its target Voltage-gated inwardly rectifying potassium channel KCNH2 (Homo sapiens, UniProt Q12809). Kind of test: hERG channel inhibition in selectivity testing, SAR follow-up, selectivity assay for TASK1 inhibitor project, FluxOR thallium flux, concentration-response, CHO cells (AID 652194). Type of test: functional, cell-based.
Test [17] concerns the target Potassium channel subfamily K member 3 (Homo sapiens, UniProt O14649). Kind of test: TASK1 (KCNK3) potassium channel inhibitors, SAR follow-up, CHO cells, FluxOR thallium flux (AID 652212). It is filed as functional.
Test [18] is described as follows: cells. Particulars: HEK293.
Test [19] concerns the target T3, Fibrinogen beta chain (Homo sapiens, UniProt P02675). Kind of test: Fluorescence polarization-based biochemical high throughput dose response assay to identify inhibitors that disrupt the binding of a cyclic peptide (Tn6) to the fibrin proteolytic product D-Dimer and fragment E complex [DD(E )].
In test [20] the target is T3, Fibrinogen beta chain. As to the kind of experiment: Fluorescence polarization-based biochemical high throughput dose response assay to identify inhibitors that disrupt the binding of a cyclic peptide (Tn7) to the fibrin proteolytic product D-Dimer and fragment E complex [DD(E )].
A further test deals with Paired box protein Pax-8 (Homo sapiens, UniProt Q06710). Kind of test: inhibitors of PAX8-driven TPO luciferase reporter, dose response, RMG-I cells, cherry-pick (AID 687027).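 Also: luciferase reporter driven by Pax8 target thyroperoxidase promoter measured by SteadyGlo luminescence.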 Type of test: functional, cell-based. A general note: In a reporter assay the amount or activity of a reporter protein is the signal.
A short description of test [21]: NIH:OVCAR-3 ovarian cancer cell cytotoxicity, dose response, PAX8 inhibitor project, plate reader, dry powder samples (AID 743044). Type of test: functional, cell-based.
Test [22] in a line: A549 cell cytotoxicity, dose response, cytotoxicity control, plate reader, cherry-pick, antagonist series (AID 743412). It is filed as functional, cell-based.
A short description of test [23]: LGR2 antagonists, dose response, cell-based, HEK293, CRE-luciferase reporter, cherry pick (AID 743342). It is filed as functional.
A short description of test [24]: HEK293 cell cytotoxicity, dose response, cytotoxicity control, plate reader, cherry-picked samples (AID 743446). It is filed as functional, cell-based.
Test [25] can be described thus: MC4R antagonists, dose response, counter-screen for LGR2 antagonist project, cell-based, plate reader, cherry pick (AID 743444).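 Also: transfected HEK 293 cells stimulated with alpha-MSH peptide; potency of inhibitors of the alpha-MSH evoked signal.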 Type of test: functional. In general terms: The purpose of a counterscreen is to sort out artefacts and off-target activity.
Another test concerns the target Fatty acid synthase (Homo sapiens, UniProt P49327). As to the kind of experiment: FAS thioesterase domain inhibitors, SAR follow-up, biochemical, endpoint fluorescence intensity, powder samples (AID 652164). It is filed as functional.

T3 sequence (P02675 whole entry, the tested form may be a part): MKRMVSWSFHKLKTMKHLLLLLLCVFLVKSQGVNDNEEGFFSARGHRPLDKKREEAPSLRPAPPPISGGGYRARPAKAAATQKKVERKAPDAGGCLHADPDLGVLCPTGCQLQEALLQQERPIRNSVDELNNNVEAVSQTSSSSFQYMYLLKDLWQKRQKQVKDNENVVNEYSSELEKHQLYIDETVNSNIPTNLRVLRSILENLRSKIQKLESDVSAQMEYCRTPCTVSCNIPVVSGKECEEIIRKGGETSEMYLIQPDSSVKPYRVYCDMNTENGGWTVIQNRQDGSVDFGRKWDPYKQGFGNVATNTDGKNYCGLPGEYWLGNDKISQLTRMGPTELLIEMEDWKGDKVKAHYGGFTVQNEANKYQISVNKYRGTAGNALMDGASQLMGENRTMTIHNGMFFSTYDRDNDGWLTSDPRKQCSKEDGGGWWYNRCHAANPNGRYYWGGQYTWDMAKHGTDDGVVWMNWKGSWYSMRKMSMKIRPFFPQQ
T1 sequence (P63165 whole entry): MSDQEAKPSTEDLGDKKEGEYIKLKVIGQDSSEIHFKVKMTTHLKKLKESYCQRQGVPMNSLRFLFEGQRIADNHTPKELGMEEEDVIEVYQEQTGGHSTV
Fatty acid synthase, sequence (P49327 whole entry, the tested form may be a part): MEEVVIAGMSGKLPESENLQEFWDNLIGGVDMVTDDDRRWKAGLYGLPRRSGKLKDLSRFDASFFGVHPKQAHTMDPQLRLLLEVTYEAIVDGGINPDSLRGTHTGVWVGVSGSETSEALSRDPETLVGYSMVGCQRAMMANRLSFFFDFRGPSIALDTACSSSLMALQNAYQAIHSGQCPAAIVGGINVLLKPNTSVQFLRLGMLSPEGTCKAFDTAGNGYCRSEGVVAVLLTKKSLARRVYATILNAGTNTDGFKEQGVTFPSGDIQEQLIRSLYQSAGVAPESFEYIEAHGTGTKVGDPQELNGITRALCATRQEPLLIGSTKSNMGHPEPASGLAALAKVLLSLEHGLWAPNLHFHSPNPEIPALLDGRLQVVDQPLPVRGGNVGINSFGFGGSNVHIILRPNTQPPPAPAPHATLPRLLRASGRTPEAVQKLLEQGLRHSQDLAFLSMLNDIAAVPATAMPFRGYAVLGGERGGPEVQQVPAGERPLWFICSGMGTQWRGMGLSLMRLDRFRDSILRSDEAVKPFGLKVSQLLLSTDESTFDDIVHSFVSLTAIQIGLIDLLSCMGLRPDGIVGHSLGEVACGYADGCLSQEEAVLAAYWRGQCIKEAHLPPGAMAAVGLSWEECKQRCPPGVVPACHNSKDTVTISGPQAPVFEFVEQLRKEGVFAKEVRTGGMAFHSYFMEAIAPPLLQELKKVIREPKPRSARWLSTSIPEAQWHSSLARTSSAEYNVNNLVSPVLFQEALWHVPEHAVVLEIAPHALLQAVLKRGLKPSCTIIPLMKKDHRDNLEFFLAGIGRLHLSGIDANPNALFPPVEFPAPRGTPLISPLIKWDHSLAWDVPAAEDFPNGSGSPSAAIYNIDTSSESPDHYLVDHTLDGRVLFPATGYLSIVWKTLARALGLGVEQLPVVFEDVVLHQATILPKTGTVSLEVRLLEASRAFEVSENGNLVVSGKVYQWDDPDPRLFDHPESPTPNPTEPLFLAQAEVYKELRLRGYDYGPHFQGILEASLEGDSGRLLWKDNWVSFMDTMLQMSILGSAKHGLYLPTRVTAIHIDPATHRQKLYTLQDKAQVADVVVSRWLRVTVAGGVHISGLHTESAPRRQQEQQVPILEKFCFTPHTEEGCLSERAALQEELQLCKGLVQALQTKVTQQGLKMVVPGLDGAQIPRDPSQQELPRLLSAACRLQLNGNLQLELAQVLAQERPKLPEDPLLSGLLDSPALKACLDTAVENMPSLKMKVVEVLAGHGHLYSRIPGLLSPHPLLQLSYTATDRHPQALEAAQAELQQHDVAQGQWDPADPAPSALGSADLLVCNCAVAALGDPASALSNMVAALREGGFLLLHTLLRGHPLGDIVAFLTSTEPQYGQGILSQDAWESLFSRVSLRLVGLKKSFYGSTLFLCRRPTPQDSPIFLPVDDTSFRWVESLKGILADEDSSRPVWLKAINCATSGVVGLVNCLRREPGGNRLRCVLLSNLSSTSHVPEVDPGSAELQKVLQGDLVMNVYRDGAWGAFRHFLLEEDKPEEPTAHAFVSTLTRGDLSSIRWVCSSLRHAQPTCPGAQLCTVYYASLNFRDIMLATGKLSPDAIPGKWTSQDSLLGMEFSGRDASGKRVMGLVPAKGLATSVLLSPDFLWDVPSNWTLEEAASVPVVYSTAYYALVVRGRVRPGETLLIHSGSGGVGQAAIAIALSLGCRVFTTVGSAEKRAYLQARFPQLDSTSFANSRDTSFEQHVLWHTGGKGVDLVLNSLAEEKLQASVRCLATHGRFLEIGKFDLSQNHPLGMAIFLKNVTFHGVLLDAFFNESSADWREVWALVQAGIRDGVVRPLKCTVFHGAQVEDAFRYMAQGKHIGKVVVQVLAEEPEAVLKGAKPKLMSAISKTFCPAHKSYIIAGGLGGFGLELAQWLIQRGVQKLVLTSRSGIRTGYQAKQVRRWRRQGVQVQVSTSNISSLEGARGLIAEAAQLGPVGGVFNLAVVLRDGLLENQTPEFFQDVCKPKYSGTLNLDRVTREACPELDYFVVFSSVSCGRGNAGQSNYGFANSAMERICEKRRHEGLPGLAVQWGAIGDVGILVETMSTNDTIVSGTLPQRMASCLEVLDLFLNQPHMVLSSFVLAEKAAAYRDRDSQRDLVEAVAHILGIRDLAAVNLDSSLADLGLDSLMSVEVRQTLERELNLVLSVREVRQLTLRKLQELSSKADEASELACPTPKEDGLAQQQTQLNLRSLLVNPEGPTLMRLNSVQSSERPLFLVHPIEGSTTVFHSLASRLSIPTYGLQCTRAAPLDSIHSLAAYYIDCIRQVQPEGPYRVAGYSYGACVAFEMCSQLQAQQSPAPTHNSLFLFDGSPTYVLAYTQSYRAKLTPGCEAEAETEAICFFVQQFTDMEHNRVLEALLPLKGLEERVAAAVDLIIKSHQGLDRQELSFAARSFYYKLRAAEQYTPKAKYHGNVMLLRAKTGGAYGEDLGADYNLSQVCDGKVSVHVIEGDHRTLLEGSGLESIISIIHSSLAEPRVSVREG
Potassium channel subfamily K member 3, sequence (O14649 whole entry): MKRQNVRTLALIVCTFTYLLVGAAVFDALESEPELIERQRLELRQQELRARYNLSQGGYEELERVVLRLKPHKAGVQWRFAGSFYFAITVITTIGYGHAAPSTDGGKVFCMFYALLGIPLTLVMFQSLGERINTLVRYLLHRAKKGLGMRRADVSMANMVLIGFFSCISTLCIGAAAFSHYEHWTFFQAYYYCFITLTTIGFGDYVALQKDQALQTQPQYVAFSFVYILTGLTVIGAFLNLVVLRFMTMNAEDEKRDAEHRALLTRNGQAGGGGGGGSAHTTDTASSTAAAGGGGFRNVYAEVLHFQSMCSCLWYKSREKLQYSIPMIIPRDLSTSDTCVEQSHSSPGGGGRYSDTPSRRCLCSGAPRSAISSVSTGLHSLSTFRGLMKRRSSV

What is called AC50 is the concentration giving half of the maximal activity seen. Turning to `N#CC(C#N)=C1NC(N)=C(C#N)C(c2ccccc2)=C1C#N`, the IC50 in test [1] was > 66.6 µM (inactive); in [3] it was 3.22 µM (active); in test [6], > 128 µM (inactive); in test [7], 8.41 µM (active); on Major prion protein it was 1.92 µM (active); in test [8] it was 100 µM (inactive). Moreover, in the test “cells [9]”, the IC50 was > 138 µM (inactive). Also, the AC50 on CAAX prenyl protease 2 [2] was > 100 µM (inactive); on CAAX prenyl protease 2 [4], 8.31 µM (active); in [5], 4.56 µM (active).
The EC50 is the concentration giving half of the maximal effect. With `Cc1ccccc1-c1noc(-c2ccc(O)cc2)n1`, the results for the IC50 in test [10] and in [13] were 48.8 µM (inactive) and > 69.5 µM (inactive), respectively. The values for the EC50 in test [11] and in [12] were 0.623 µM (active) and 0.122 µM (active), respectively.
`Cc1ccc(-c2csc(NC(=O)/C=C/c3ccco3)c2C(=O)O)cc1`: in test [14], the EC50 is > 67.6 µM (inactive).
Consider `COc1ccc(CC(=O)NCc2ccccc2-c2ccccc2C(=O)NCc2ccc(F)cc2F)cc1`, for which the values for the IC50 in test [15], in test [16] and in [17] were 3.2 µM (active), 36.7 µM (active) and 0.115 µM (active), respectively.
For `CNC(=O)c1ccc(NC(=O)c2cccc(C(F)(F)F)c2)cc1`, the AC50 in “cells [18]” was 49.8 µM (active).
As for `C#CCNc1ccc(C(=O)OCC)cc1`, the IC50 was > 83.1 µM (inactive) on Fibrinogen beta chain [19] and > 27.7 µM (inactive) on Fibrinogen beta chain [20].
Consider `Cc1cccc(S(=O)(=O)N2CC[C@@H]3[C@H](CO)N(C)c4ccc(-c5ccc(C#N)cc5)cc4[C@@H]32)c1`, for which the results for the concentration at half-maximal activity (AC50) (on Paired box protein Pax-8; in test [21]) were 10.1 µM (active) and 67.7 µM (active), respectively.
For the compound `COc1ccc(S(=O)(=O)N(C)C[C@@H]2OCCCC[C@H](C)Oc3ccc(NS(=O)(=O)c4ccc(F)cc4)cc3C(=O)N([C@@H](C)CO)C[C@@H]2C)cc1`, the AC50 in test [22] is 26 µM (active); in [23] it was 58.8 µM (active); in test [24] it was > 52 µM (inactive); in [25], 42.7 µM (active).
With `CCN(CC)S(=O)(=O)c1ccc(-c2csc(NC(=O)C3CCC3)n2)cc1`, the IC50 on Fatty acid synthase was 0.985 µM (active).
